± gives the expanded uncertainty stated by the source.
How the values were obtained:
[1] = 298.15 K; 101.33 kPa; Liquid; Vibrating tube method
[2] = refractive index (Na D-line) (dimensionless); conditions: 298.15 K; 101.33 kPa; Liquid; Standard Abbe refractometry

mass density [1] [kg/m3]	refractive index [2]	Compound
1049.68 ± 0.14	1.43851 ± 0.00032	OCCCO [propan-1,3-diol]
781.18 ± 0.15	1.3752 ± 0.00032	CC(C)O [propan-2-ol]

Compound	mass density [1] [kg/m3]	refractive index [2]
O [water]	–	1.33237 ± 0.00032

Reference: the NIST ThermoML archive (doi:10.1016/j.fluid.2014.02.006)
